Publication PMC11503522, “Native Mass Spectrometry of Membrane Protein–Lipid Interactions in Different Detergent Environments” (Analytical Chemistry, 2024)
Each block holds one molecule with its values, some of them ahead of it.

How the values were obtained:
AmtB-GlnK complex = molecular target: T1, AmtB-GlnK complex (Escherichia coli, UniProt P69681); test: native MS, mole fraction of lipid-bound states; format: binding; settings: ADP present, 200 mM ammonium acetate pH 7.4
T1 construct: with Nitrogen regulatory protein GlnK
T1 sequence (P69681 23-428): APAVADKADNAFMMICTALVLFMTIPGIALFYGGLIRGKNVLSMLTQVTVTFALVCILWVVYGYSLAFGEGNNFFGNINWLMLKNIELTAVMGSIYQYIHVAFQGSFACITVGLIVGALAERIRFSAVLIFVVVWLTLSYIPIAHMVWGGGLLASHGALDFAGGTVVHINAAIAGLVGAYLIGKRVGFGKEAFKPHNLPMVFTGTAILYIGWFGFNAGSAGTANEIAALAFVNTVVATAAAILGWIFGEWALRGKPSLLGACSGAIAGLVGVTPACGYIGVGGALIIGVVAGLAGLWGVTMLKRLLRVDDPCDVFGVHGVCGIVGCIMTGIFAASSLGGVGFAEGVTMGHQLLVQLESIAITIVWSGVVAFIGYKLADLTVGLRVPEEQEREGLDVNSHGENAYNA
T1 sequence (P0AC55 1-112 partner): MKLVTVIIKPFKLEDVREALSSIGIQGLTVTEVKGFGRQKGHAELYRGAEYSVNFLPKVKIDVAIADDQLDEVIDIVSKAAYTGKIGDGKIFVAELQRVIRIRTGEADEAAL

AqpZ (AqpZ-STII) = molecular target: T2, AqpZ (AqpZ-STII) (Escherichia coli, UniProt P60844); test: native MS lipid titration, sequential binding model; settings: LDAO; first lipid bound; range over conditions; 200 mM ammonium acetate pH 7.4, room temperature; read-out: Kd1
T2 construct: C-terminal Strep-tag II
T2 sequence (P60844 1-231): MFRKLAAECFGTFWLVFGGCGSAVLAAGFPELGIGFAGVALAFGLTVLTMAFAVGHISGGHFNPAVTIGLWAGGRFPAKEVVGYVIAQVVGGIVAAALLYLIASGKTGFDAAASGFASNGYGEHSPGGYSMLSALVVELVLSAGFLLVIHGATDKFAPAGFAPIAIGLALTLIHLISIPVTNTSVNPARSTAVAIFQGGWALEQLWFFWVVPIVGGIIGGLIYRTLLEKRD

[1] = molecular target: T3, Aquaporin Z from Escherichia coli containing a C-terminal Strep-tag II (Escherichia coli), P60844; test: native MS; 1 uM AqpZ in 200 mM ammonium acetate pH 7.4 with 2x CMC detergent (C8E4 or LDAO alone; DM, OGNG, NG, C8E4 or LDAO with 5 mM SPM or 60 mM TMAO); nanoESI, Exactive Plus EMR Orbitrap, room temperature; settings: remark: other sources report otherwise
T3 chain: T2 sequence (P60844 1-231)

Molecule: CCCCCCCC/C=C\CCCCCCCC(=O)O[C@H](COC(=O)CCCCCCCCCCCCCCC)COP(=O)(O)O [POPA]
native MS, mole fraction of lipid-bound states (AmtB-GlnK complex; several detergents): POPA and POPS binding to AmtB-GlnK was broadly comparable for the different detergents

Molecule: CCCCCCCC/C=C\CCCCCCCC(=O)O[C@H](COC(=O)CCCCCCCCCCCCCCC)COP(=O)(O)OCC(O)CO (some centres unmarked) [POPG]
native MS, mole fraction of lipid-bound states (AmtB-GlnK complex; several detergents): AmtB-GlnK in different detergent environments showed comparable binding of POPG

Kd (AqpZ (AqpZ-STII)): 300 to 1400 nM
Molecule: CCCCCCCC/C=C\CCCCCCCC(=O)OC[C@H](COP(=O)(O)OCC(O)COP(=O)(O)OC[C@@H](COC(=O)CCCCCCC/C=C\CCCCCCCC)OC(=O)CCCCCCC/C=C\CCCCCCCC)OC(=O)CCCCCCC/C=C\CCCCCCCC (some centres unmarked) [TOCDL]
native MS, mole fraction of lipid-bound states (AmtB-GlnK complex; 2 μM complex, 25 μM lipid, C8E4, LDAO, DM or NG): binding of TOCDL was more prominent in LDAO and DM

stoichiometry N [1]: 4
B1: Aquaporin Z from Escherichia coli containing a C-terminal Strep-tag II, P60844 1-231 (natural protein)
chain: T2 sequence (P60844 1-231)
